Earlier results in patent publication US20100021879A1, “COMPOSITIONS AND METHODS FOR PRESERVING RED BLOOD CELLS” (THE REGENTS OF THE UNIVERSITY OF MICHIGAN, priority 2007, published 2010).

Tests used:
erythrocyte = details: prior to hemolysis

SMILES | red blood cell deformability (red blood cells) | K leak (erythrocyte) | erythrocyte deformability evidenced by ektacytometry (erythrocyte)
CC[N+](CC)(CC)CC [TEA] | increased deformability | – | –
OCl [hypochlorous acid] | – | increase in K leak | changes in erythrocyte deformability
